Laboratory results: patent US20120258113A1, “SUSBSTANTIALLY PURE STEROIDOGENESIS INDUCING PEPTIDE AND USES THEREOF” (CLARK ATLANTA UNIVERSITY, priority 2006, published 2012)
“Also recorded” adds a separate entry of the source.

Experiments:
Leydig cells = assay: Effect of kinase inhibitors on SIP-stimulated DNA synthesis in Leydig cells; assay type: cell-based, rat; conditions: PD98059 25 μM; LY294002 5 μM; with SIP
Method: (§1) Immature rat Leydig cells and various cancer cell lines were starved for 48 hours before treatment. The cells were then treated with SIP, the polypeptide having the amino acid sequence identified as SEQ ID NO:2, LH, and EGF for 18 hours. The incubation media were collected (Leydig cells) and analyzed for total androgen production. ^3H-thymidine (1 μCi/ml) was added to the cells for further 4 hours incubation. Then the hot media were removed; ice-cold water was added to the cells which were lysed by sonication. The cell lysates were filterd through DE81 ion-exchanger filters. The filter membranes were then put in vials filled with scintillation fluid, and the radioactivity was measured by a Beckman β-counter.
Immature Leydig cells were cultured for 18 h and treated with different concentrations of oLH, SIP and EGF. For some experiments, the cells were treated with oLH or SIP for 18 h in the absence or presence of inhibitors of tyrosine kinase (Genistein; 10 uM), MAPK-kinase (PD98059; 25 μM), PI3-kinase (LY294002; 5 μM) or PKA (H89; 10 μM) to determine the intracellular signaling pathways involved in the effects of SIP on androgen production. The incubation media were collected and analyzed for total androgens using a radioimmunoassay, as described previously (Dickson et al., 2002). […] All samples were analyzed in the same assay, and the intra-assay coefficient of variation was <10%.

[1] = tested on: immature rat Leydig cells; assay: Thymidine incorporation assay (DNA synthesis) in immature rat Leydig cells; assay type: cell-based; conditions: 3H-thymidine incorporation
Method: Immature rat Leydig cells (ILC) were isolated from 10-day old rat testes and cultured with serum-free medium before treatment. Immature rats were sacrificed at 10 days of age, and the testes were removed Immature Leydig cells were isolated and cultured. The decapsulated testes were incubated for 5 min in culture medium containing 0.25 mg collagenase/ml (Type I, Sigma) in shaking water bath. The seminiferous tubules were allowed to settle at unit gravity for 5 min, and the supernatant containing the suspension of interstitial cells was removed. The supernatant was centrifuged at 90×g for 10 min, and the cell pellet was washed twice by re-suspension in fresh medium followed by centrifugation. […] Immature Leydig cells cultured in 24-well plates (2×10^5 cells/well) were treated with several doses of oLH for 48 h, and the conditioned media were analyzed for androgen content.
Immature rat Leydig cells and various cancer cell lines were starved for 48 hours before treatment. […] The incubation media were collected (Leydig cells) and analyzed for total androgen production. ^3H-thymidine (1 μCi/ml) was added to the cells for further 4 hours incubation. […] The filter membranes were then put in vials filled with scintillation fluid, and the radioactivity was measured by a Beckman β-counter.

StAR protein = StAR protein expression in rat Leydig cells (Western blotting); assay type: cell-based; conditions: Leydig cells treated for 24 hour, listed as synthetic peptide 2
[2] = tested on: human ovarian epithelial cancer (HEY) cells; assay: Thymidine incorporation assay (DNA synthesis) in HEY cells; assay type: cell-based; conditions: different doses of peptide
Method: (§2) Ovarian (HEY, SKA), prostate (DU145, PC3) and breast (MCF7) cancer cell lines were cultured and maintained using well-established culture procedures.
as §1

rat Leydig cells = assay: Testosterone production by rat Leydig cells (radioimmunoassay); assay type: cell-based; conditions: cultured 6, 24 or 48 hours; for testosterone production: radioimmunoassay
Method: Immature rat Leydig cells (ILC) were isolated from 10-day old rat testes and cultured with serum-free medium before treatment. Immature rats were sacrificed at 10 days of age, and the testes were removed Immature Leydig cells were isolated and cultured. The decapsulated testes were incubated for 5 min in culture medium containing 0.25 mg collagenase/ml (Type I, Sigma) in shaking water bath. The seminiferous tubules were allowed to settle at unit gravity for 5 min, and the supernatant containing the suspension of interstitial cells was removed. The supernatant was centrifuged at 90×g for 10 min, and the cell pellet was washed twice by re-suspension in fresh medium followed by centrifugation. The cell suspension was plated in 24-well tissue culture plates (Nunclon; Nunc, Roskilde, Denmark; 2×10^5 cells/well) or in 6-well plates (2×10^6 cells/well) depending upon the end point of the experiment. The cells were cultured at 37° C. in a humidified atmosphere of 5% CO2 and 95% air in serum-free medium. After 1 h, the immature Leydig cells were well attached to the surface of the culture plates, whereas contaminating cells (Sertoli cells, germ cells, precursor Leydig cells) were loosely attached. The cells were washed three times with medium to remove loosely attached cells. At this stage, the cell preparation contains more than 90% immature Leydig cells. Immature Leydig cells cultured in 24-well plates (2×10^5 cells/well) were treated with several doses of oLH for 48 h, and the conditioned media were analyzed for androgen content.
Immature Leydig cells were cultured for 18 h and treated with different concentrations of oLH, SIP and EGF. […] The incubation media were collected and analyzed for total androgens using a radioimmunoassay, as described previously (Dickson et al., 2002). […] All samples were analyzed in the same assay, and the intra-assay coefficient of variation was <10%.

[3] = tested on: tyrosine phosphorylation of Leydig cell proteins; assay: Tyrosine phosphorylation of Leydig cell proteins (phospho-tyrosine immunoblot); assay type: cell-based, rat; conditions: Leydig cells treated for 30 minutes; listed as synthetic peptide 2
Method: (§3) To determine the effects of SIP and EGF on activation of proteins involved in either MAP-kinase or PI3-kinase signaling pathway, immature Leydig cells were cultured in 6-well plates. The cells were washed and treated with SIP (50 μg/ml) or EGF (10 ng/ml) for 30 min in the presence or absence of inhibitors of MAPK-kinase (PD98059; 25 μM) or PI3-kinase (LY294002; 5 μM). The cells were washed twice with ice-cold phosphate-buffered saline and lysed in lysis buffer (Cell Signaling Technology, Beverly, Mass.) containing 20 mM Tris-HCl (pH 7.5), 150 mM NaCl, 1 mM Na2EDTA, 1 mM EGTA, 1% Triton, 2.5 mM sodium pyrophosphate, 1 mM β-glycerophosphate, 1 mM Na3VO4, 1 μg/ml leupeptin and 1× protease inhibitor cocktail (Calbiochem, San Diego, Calif.). Protein concentrations were determined by the Lowry HS assay using the Bio-Rad DCProtein Assay kit (Bio-Rad, Hercules, Calif.) according to the instruction provided by the manufacturer. Cell lysates were mixed with Lammeli's buffer (62.5 mM Tris, pH 6.8, 2% SDS, 5% β-mercaptoethanol and 10% glycerol), and individual samples (25 μg protein) were subjected to SDS-PAGE in 10% gels and transferred to PVDF membranes (Millipore). The membranes were blocked overnight at 4° C. in TBST (50 mM Tris, pH 7.5, containing 0.15M NaCl, 0.05% Tween-20 and 4% fat-free skimmed milk). […]

PI3-kinase/AKT pathway = assay: Activation of PI3-kinase/AKT pathway in rat Leydig cells (activation specific antibodies); assay type: cell-based; conditions: 30 min
Method: as §3

[4] = tested on: immature rat Leydig cells and ovarian, prostate and liver cancer cell lines; assay: DNA synthesis in Leydig cells and cancer cell lines (summary of FIGS. 8-10); assay type: cell-based
Method: as §2, §1

StAR mRNA = StAR mRNA expression in rat Leydig cells (RT-PCR); assay type: cell-based; conditions: Leydig cells treated for 24 hour
Method: Total RNA was isolated from Leydig cells using TRIzol (Invitrogen, Carlsbad, Calif.) followed by chloroform extraction and isopropanol precipitation. Two micrograms of total RNA were reverse transcribed at 37° C. for 1 h in a reaction mixture containing 0.5 mM dNTP (Fisher Scientific), 400 U of M-MLV Reverse Transcriptase (Promega), 1×RT buffer, 0.5 mM dithiotreitol (Bio-Rad) and 0.5 μg of oligo dT (Promega). After incubation, the RT enzyme was heat inactivated at 70° C. for […] and the reaction cooled to 4° C. Four microliters of RT reactions were added to separate PCR reaction mixtures (total 10 μl) containing 0.1 mM dNTPs, (Fisher), 0.5 U Tag DNA polymerase (PGC Scientifics, Frederick, Md.), 1×PCR buffer with 3 mM MgC12 (Idaho Technology, Salt Lake City, Utah) and […] of the specific primers for the following genes: scavenger receptor B type 1 (SR-B1), cytochrome P450 cholesterol side-chain cleavage (P450scc), 3β-hydroxysteroid dehydrogenase (3β-HSD), 17 alpha-hydroxylase/C17-20 lyase (P450c17) and steroidogenic acute regulatory (StAR) protein. L19 (a ribosomal protein) primer pair was used as internal control. The following protocol was used in the Rapid Cycler thermal cycler (Idaho Technology): 94° C. for 15 s (initial denaturation), followed by 94° C. for 0 s, 60° C. for 0 s, 72° C. for 20 s for 35 cycles, and 72° C. for 30 s (final extension). […]

[5] = tested on: MAP-kinase signaling pathway (Ras, MEK, ERK); assay: Activation of MAP-kinase signaling pathway in Leydig cells (activation specific immunoblots); assay type: cell-based, rat; conditions: 30 minutes
Method: as §3

Compound	effect of inhibitor on SIP effects on DNA synthesis (Leydig cells)	DNA synthesis [1]	expression of StAR protein (StAR protein)	DNA synthesis [2]	testosterone production compared with purified SIP (rat Leydig cells)	testosterone production (rat Leydig cells; listed as SEQ ID NO:2)	testosterone production (rat Leydig cells; listed as synthetic SIP peptide 2)	tyrosine phosphorylation of cell proteins [3]	activation of PI3-kinase/AKT pathway (AKT phosphorylation) (PI3-kinase/AKT pathway)	activation of PI3-kinase/AKT pathway (AKT phosphorylation) (PI3-kinase/AKT pathway; listed as synthetic peptide 2)	DNA synthesis in different cells [4]	expression of StAR mRNA (StAR mRNA)	activation of MAP-kinase pathway (Ras, MEK, ERK1/ERK2 phosphorylation) [5]	activation of MAP-kinase pathway (Ras, MEK, ERK1/ERK2 phosphorylation) ([5]; listed as synthetic peptide 2)
COc1cccc(-c2cc(=O)c3ccccc3o2)c1N [PD98059]	blocks the effects of SIP on DNA synthesis	–	–	–	–	–	–	–	–	–	–	–	–	–
DVNGGGATLPQPLYQTA [peptide 2]	–	capable of inducing proliferation of immature rat Leydig cells	stimulated the induction of StAR protein; also recorded: induce the expression of protein	capable of exerting mitogenic effects	not as high as those observed with purified SIP	significant stimulation of testosterone production	stimulation of testosterone production	induces the phosphorylation of several proteins at tyrosine; also recorded: capable of binding to SIP receptors and initiating signaling cascade	activated	significant induction of phosphorylation	significant stimulation of DNA synthesis	induce the expression of StAR mRNA	activated	significant induction of phosphorylation
